Measurements published in PubChem BioAssay (NCI).
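Step 1: Grow cells in 96-well plates. Step 2: Expose to compound for 48 hours at 5 concentrations. Step 3: Interpolate endpoints linearly; if unreached, use highest concentration. Abbreviation: GI50, concentration required for 50% inhibition of growth. At the TGI there is no net growth.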

Legend:
Experiment in all cases: inhibition of tumour cell growth, NCI panel, 48 h
[1] = tested on: OVCAR-5 ovarian
[2] = tested on: RPMI-8226 leukemia
[3] = tested on: SF-295 CNS
[4] = tested on: K-562 leukemia
[5] = tested on: MOLT-4 leukemia
[6] = tested on: MDA-MB-435
[7] = tested on: T-47D breast
[8] = tested on: OVCAR-8 ovarian
[9] = tested on: U251 CNS
[10] = tested on: PC-3 prostate
[11] = tested on: HCT-15 colon
[12] = tested on: SR leukemia
[13] = tested on: SNB-75 CNS
[14] = tested on: COLO 205 colon
[15] = tested on: M14 melanoma
[16] = tested on: MDA-MB-231 breast
[17] = tested on: SF-539 CNS
[18] = tested on: EKVX NSCLC
[19] = tested on: KM12 colon
[20] = tested on: HT29 colon
[21] = tested on: LOX IMVI melanoma
[22] = tested on: HOP-62 NSCLC
[23] = tested on: HCC-2998 colon
[24] = tested on: CAKI-1 renal
[25] = tested on: HCT-116 colon
[26] = tested on: SF-268 CNS
[27] = tested on: NCI-H522 lung
[28] = tested on: SN12C renal
[29] = tested on: SK-MEL-28 melanoma

For `COc1ccc(C(C)=C(c2ccc(OCCN3CCCCCC3)cc2)c2ccc(OCCN3CCCCCC3)cc2)cc1`, the GI50 [1] was 2440 nM, the TGI [1] was 8260 nM and the GI50 [2] was 443 nM. The TGI [2] was 1090 nM, the GI50 [3] was 447 nM and the TGI [3] was 1310 nM. The GI50 [4] was 338 nM, the TGI [4] was 825 nM and the GI50 [5] was 436 nM. The TGI [5] was 1290 nM, the GI50 [6] was 422 nM and the TGI [6] was 1170 nM. For the same compound, the GI50 [7] was 628 nM, the TGI [7] was 4550 nM and the GI50 [8] was 2620 nM. For the same compound, the TGI [8] was 6820 nM, the GI50 [9] was 524 nM and the TGI [9] was 1830 nM. The GI50 [10] was 1720 nM, the TGI [10] was 4820 nM and the GI50 [11] was 488 nM. The TGI [11] was 1970 nM, the GI50 [12] was 306 nM and the TGI [12] was 773 nM. For the same compound, the GI50 [13] was 2060 nM, the TGI [13] was 5230 nM and the GI50 [14] was 375 nM. The TGI [14] was 948 nM, the GI50 [15] was 270 nM and the TGI [15] was 515 nM. The GI50 [16] was 1360 nM, the TGI [16] was 3950 nM and the GI50 [17] was 1020 nM. The TGI [17] was 2990 nM, the GI50 [18] was 2340 nM and the TGI [18] was 7200 nM. It also gave a GI50 [19] of 1220 nM, a TGI [19] of 4010 nM and a GI50 [20] of 545 nM. It also gave a TGI [20] of 2100 nM, a GI50 [21] of 177 nM and a TGI [21] of 427 nM. The GI50 [22] was 1070 nM, the TGI [22] was 3490 nM and the GI50 [23] was 540 nM. The TGI [23] was 2000 nM, the GI50 [24] was 1390 nM and the TGI [24] was 3730 nM. For the same compound, the GI50 [25] was 369 nM, the TGI [25] was 1110 nM and the GI50 [26] was 1710 nM. The TGI [26] was 5070 nM, the GI50 [27] was 2650 nM and the TGI [27] was 6100 nM. It also gave a GI50 [28] of 2090 nM, a TGI [28] of 4800 nM and a GI50 [29] of 312 nM. The TGI [29] was 593 nM.
